Results from ChEMBL document CHEMBL1201862, “PubChem BioAssay data set” (2004).
Calls of active or inactive are those of the source.

Experiments:
[1] = NIH-3T3 fibroblast cytotoxicity, dose response, cytotoxicity control, cell-based, fluorescence, Alamar Blue, secondary assay (AID 2327); assay type: functional;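 note: NIH-3T3 mouse fibroblasts cultured with fluconazole at 8 µg/mL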
[2] = fluconazole-exposed Candida albicans growth modulators – fluorescence, retest, confirmation (AID 2467); assay type: functional, cell-based
[3] = target: T1, Polyadenylate-binding protein 1 (Homo sapiens, UniProt P11940); assay: MLLE binding blockers, Cy5 peptide tracer – biochemical, fluorescence polarization, Cy5-PAM2 peptide, secondary, miRNA deadenylation inhibitor project, dose response (AID 602260); assay type: functional; settings: read-out: IC50_Mean
T1 sequence (P11940 whole entry, the tested form may be a part): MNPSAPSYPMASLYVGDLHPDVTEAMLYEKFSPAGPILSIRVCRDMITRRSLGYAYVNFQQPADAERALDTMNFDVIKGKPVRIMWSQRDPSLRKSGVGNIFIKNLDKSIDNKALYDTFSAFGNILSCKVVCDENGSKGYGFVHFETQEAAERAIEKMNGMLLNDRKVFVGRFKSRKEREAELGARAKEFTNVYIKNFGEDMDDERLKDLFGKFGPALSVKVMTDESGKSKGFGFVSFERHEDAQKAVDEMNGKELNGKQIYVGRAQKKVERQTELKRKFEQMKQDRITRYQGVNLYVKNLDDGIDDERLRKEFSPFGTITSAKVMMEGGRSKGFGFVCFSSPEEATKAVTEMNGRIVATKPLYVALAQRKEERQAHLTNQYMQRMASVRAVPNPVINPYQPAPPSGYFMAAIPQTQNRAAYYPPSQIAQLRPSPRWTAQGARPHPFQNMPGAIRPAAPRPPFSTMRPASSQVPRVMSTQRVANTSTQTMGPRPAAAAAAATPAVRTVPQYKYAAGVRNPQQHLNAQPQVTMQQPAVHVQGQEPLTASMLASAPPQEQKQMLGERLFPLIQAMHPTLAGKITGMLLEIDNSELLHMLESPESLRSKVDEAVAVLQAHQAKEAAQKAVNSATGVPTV

[4] = target: T1, Polyadenylate-binding protein 1; assay: MLLE domain peptide-binding blockers, IC50 – biochemical, fluorescence polarization, FITC-PAM2 peptide, dose response (AID 602259); assay type: functional; settings: read-out: IC50_Mean
[5] = target: FAD-linked sulfhydryl oxidase ALR (Homo sapiens, UniProt P55789); assay: ALR-catalysed DTT oxidation blockers – biochemical, H2O2 detection, luminescence, cherry-pick, dose response (AID 493248)
Sequence of FAD-linked sulfhydryl oxidase ALR (P55789 whole entry): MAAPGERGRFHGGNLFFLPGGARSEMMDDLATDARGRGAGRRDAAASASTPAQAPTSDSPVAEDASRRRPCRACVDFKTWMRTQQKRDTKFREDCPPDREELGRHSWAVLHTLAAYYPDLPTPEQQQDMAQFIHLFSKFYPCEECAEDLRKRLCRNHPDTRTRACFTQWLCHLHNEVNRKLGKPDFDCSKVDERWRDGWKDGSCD

Protein skinhead-1 = target: T2, Protein skinhead-1 (Caenorhabditis elegans, UniProt P34707); assay type: functional
T2 sequence (P34707 whole entry): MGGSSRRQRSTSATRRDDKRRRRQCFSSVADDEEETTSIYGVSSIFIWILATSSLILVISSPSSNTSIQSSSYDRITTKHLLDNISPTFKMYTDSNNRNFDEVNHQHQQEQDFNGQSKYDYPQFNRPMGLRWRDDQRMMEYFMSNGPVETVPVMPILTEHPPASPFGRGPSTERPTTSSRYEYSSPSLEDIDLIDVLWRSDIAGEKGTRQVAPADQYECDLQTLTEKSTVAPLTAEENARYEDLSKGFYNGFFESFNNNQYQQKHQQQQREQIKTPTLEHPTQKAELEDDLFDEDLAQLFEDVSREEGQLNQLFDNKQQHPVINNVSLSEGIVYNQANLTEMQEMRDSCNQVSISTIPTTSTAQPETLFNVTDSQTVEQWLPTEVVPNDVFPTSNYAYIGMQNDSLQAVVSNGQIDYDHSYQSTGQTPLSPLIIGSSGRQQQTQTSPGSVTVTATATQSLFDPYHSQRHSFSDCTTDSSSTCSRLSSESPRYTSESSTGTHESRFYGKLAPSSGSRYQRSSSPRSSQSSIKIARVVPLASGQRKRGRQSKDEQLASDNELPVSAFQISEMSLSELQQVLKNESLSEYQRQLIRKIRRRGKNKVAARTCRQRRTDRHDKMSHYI

[6] = non-specific 3'UTR reporter inhibition in Clone20-Shn3RL – cell-based, Renilla luciferase, cherry-picked, counter-screen for Shn3 inhibitor project, dose response (AID 624133); assay type: functional
[7] = target: T3, Ubiquitin-conjugating enzyme E2 N (Homo sapiens, UniProt P61088); assay type: functional;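 note: Dose-response confirmation in a TR-FRET assay detecting UBC13-driven polyubiquitin chain formation, inhibition measured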
T3 sequence (P61088 whole entry): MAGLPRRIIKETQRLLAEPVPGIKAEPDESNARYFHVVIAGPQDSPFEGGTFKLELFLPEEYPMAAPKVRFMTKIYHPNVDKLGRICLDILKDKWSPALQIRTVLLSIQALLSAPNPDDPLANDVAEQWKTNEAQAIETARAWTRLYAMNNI

[8] = tested on: Streptococcus sp. 'group A'; assay: Streptococcus pyogenes SK(-)GAS viability under kanamycin – luminescence, BacTiterGlo, confirmation, counter-screen for streptokinase expression inhibitor project, dose response (AID 1900); assay type: functional, organism-based
Streptococcus = assay: GAS UMAA2166 growth inhibition – luminescence, BacTiterGlo, counter-screen for streptokinase expression inhibitor project, dose response (AID 1915); assay type: functional, organism-based;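 note: potency for reduction of bacterial viability or growth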
Streptokinase A = target: T4, Streptokinase A (Streptococcus pyogenes serotype M1, UniProt P10520); assay: viability-normalized secreted streptokinase activity reduction – plasminogen activation absorbance, OD405, dose response (AID 1914); assay type: functional, Streptococcus pyogenes M1 GAS;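 note: secreted streptokinase activity via plasminogen activation per viability signal from cell pellet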
T4 sequence (P10520 whole entry): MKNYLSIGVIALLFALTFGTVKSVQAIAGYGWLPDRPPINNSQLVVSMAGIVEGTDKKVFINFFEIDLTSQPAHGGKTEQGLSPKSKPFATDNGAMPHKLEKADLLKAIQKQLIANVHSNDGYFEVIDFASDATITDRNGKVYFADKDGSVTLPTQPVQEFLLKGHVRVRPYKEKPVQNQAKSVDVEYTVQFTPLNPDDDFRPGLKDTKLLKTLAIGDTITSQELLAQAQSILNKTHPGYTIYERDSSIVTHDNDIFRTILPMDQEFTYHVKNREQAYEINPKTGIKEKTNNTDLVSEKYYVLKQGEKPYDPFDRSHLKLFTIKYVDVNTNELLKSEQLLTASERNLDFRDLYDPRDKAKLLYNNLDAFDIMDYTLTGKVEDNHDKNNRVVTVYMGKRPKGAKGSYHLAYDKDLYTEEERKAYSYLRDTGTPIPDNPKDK

[9] = target: T5, Corticotropin-releasing factor receptor 2/Corticotropin-releasing factor-binding protein (Homo sapiens, UniProt P24387+Q13324); assay: activators of CRF receptor 2 with binding protein – uHTS hits, confirmation (AID 602473); assay type: functional; settings: read-out: EC50_Mean
T5 sequence (Q13324 whole entry): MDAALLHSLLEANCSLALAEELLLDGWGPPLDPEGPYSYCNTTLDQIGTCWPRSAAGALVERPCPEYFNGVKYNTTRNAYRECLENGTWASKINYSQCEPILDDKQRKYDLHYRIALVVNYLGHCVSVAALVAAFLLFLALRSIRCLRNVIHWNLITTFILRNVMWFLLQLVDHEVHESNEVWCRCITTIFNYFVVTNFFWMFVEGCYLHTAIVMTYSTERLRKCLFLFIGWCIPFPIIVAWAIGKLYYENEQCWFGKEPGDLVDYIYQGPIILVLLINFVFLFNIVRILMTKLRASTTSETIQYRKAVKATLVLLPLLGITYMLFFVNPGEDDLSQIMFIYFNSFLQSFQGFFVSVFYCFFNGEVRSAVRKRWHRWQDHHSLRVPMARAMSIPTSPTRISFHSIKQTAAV
T5 sequence (P24387 whole entry): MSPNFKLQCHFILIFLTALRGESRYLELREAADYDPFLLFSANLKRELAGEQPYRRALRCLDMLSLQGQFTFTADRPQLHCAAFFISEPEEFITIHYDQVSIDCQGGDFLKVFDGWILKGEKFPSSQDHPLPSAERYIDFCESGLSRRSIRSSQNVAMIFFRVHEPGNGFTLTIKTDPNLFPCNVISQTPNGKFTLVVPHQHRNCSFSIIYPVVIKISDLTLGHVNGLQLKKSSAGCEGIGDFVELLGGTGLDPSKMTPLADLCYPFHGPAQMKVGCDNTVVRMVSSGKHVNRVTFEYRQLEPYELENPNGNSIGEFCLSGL

[10] = target: T5, Corticotropin-releasing factor receptor 2/Corticotropin-releasing factor-binding protein; assay: Dose Response confirmation of uHTS hits for small molecule antagonists of the CRF-binding protein and CRF-R2 receptor complex.; assay type: functional; settings: read-out: IC50_Mean
[11] = alpha-synuclein stem-loop luciferase translation blockers – H4 neuroglioma cells, luminescence, confirmation (AID 1988); assay type: functional, cell-based
[12] = luciferase reporter signal suppression in cells – H4 neuroglioma cells, luminescence, dose response (AID 1990); assay type: functional, cell-based
[13] = Luminescence Cell-Based Dose Response HTS to Identify Inhibitors of 5'UTR Stem-Loop Driven Prion Protein mRNA Translation in H4 Neuroglioblastoma Cells. [Related pubchem assays: 1827 (Project Summary), 1813 (Primary HTS)]; assay type: functional

With `O=C(O/N=C1/CCSc2ccccc21)c1ccc(F)cc1` the EC50 [1] was 30.1 µM (active) and the EC50 [2] was > 38 µM (not active).

For `O=C(c1oc2ccccc2c1CSCc1ccccc1)N1CCN(c2ncccn2)CC1`, the IC50 [3] was > 66 µM (inactive) and the IC50 [4] was 38.5 µM (inactive).

For `CN(C)c1ccc(/C=N/NC(=O)CCc2c[nH]c3ccccc23)cc1`, the AC50 [5] was 2.11 µM (active).

For `CCOC(=O)N1CCN(C(=O)Nc2ccc(Cl)cc2)CC1`, the IC50 (Protein skinhead-1) was > 100 µM (inactive).

In the case of `CC(Cc1cccs1)NC(=O)Nc1ccc(F)cc1` (configuration not stated), the AC50 [6] is reported as 28.8 µM (active).

In the case of `O=C(NNC(=O)c1ccccc1O)c1ccc(Cl)c(S(=O)(=O)N2CCCCC2)c1`, the AC50 [5] is reported as 56.4 µM (active).

For `CC[C@@H](C)[C@@H]1CN([C@@H](CN2CCC[C@H]2CN2C(N)=NC[C@@H]2Cc2ccccc2)C(C)C)C(=N)N1CCCC1CCCC1`, the IC50 [7] was > 20 µM (inactive).

With `CCOc1ccc2nc(NC(=O)CN3CCC(n4nnc5cc(C(F)(F)F)ccc54)CC3)sc2c1` the EC50 [8] was 68.6 µM (active), the EC50 (Streptococcus) was > 150 µM (not active) and the IC50 (Protein skinhead-1) was > 100 µM (inactive). For the same compound, the EC50 (Streptokinase A) was > 150 µM (not active).

In the case of `CCOC(=O)c1c(NC(=O)C2Cc3ccccc3C(=O)O2)sc2c1CCCC2` (configuration not stated), the EC50 [1] is reported as > 160 µM (inactive) and the EC50 [2] is reported as > 38 µM (not active).

With `N#Cc1cnn(-c2ccccc2)c1NC(=O)CN1CCN(c2ccccc2)CC1` the AC50 [5] was 13.4 µM (active).

In the case of `CC(C)Oc1ccc(Cl)cc1Nc1nc(NCCO)nc(N2CCCC2)n1`, the IC50 [7] is reported as > 20 µM (inactive).

With `CC(C)C[C@H](NC(=O)c1[nH]cnc1C(=O)N[C@@H](CCCCN)C(=O)OC(C)(C)C)C(=O)OC(C)(C)C` the IC50 [7] was > 20 µM (inactive).

In the case of `CC(=O)n1cc([C@H]2C=C(C(=O)Nc3ccccc3)O[C@@H](OCCCCO)C2)c2ccccc21`, the IC50 [7] is reported as > 20 µM (inactive).

In the case of `CN(C(=O)CN1C(=O)/C(=C/c2ccccc2Cl)SC1=S)C1CCS(=O)(=O)C1` (configuration not stated), the IC50 [3] is reported as > 66 µM (inactive), the IC50 [4] is reported as > 66 µM (inactive) and the EC50 [9] is reported as > 53 µM (inactive). For the same compound, the IC50 [10] was > 47.1 µM (inactive).

In the case of `CC(C(=O)NC1C(=O)N2C(C(=O)O)=C(CSc3nnnn3C)CSC12)n1cc(Cl)cn1` (configuration not stated), the IC50 [3] is reported as > 66 µM (inactive), the EC50 [8] is reported as 0.161 µM (active) and the IC50 [4] is reported as > 66 µM (inactive). For the same compound, the EC50 (Streptococcus) was 0.343 µM (active).

With `Cc1nn(C)c(C(=O)NC(=S)Nc2ccc([N+](=O)[O-])cc2)c1Cl` the IC50 [3] was > 66 µM (inactive) and the IC50 [4] was > 66 µM (inactive).

For `COc1cccc(C(=O)NC2=NCCS2)c1OC`, the IC50 [3] was > 66 µM (inactive) and the IC50 [4] was > 66 µM (inactive).

With `COc1ccc(-c2n(C)c3ccccc3[n+]2CC(=O)OC2CC(C)CCC2C(C)C)cc1` (configuration not stated) the EC50 [11] was 8.61 µM (active), the EC50 [1] was 17.4 µM (inconclusive) and the EC50 [2] was 0.25 µM (active). For the same compound, the EC50 [12] was 8.73 µM (active) and the EC50 [13] was 10.9 µM (active).

In the case of `O=C(c1cccc(F)c1)N1CCC(c2nc3ccccc3s2)CC1`, the AC50 [5] is reported as 0.433 µM (active).
